Where two headings read alike, the source gives them in different places.
What was measured:
[1] = Ivosidenib plasma PK after a single oral dose (day −3, dose escalation), LC-MS/MS, non-compartmental; assay type: in vivo; conditions: human; for AUC(0-t): read-out: AUC0-72h
Method: In the dose escalation portion, patients with 1) glioma and 2) non-glioma solid tumors were enrolled into sequential cohorts using a standard 3 + 3 design. […] At least 3 patients in each cohort also received a single dose 3 days prior to the start of multiple dosing (i.e., day −3).
These samples were optional for any further patients enrolled in these cohorts. Further blood samples were collected from all patients up to 10 h postdose on cycle 1, day 15 and cycle 2, day 1. A subset of samples was also used for evaluation of plasma 4β-hydroxycholesterol (4β-OHC) and 4β-OHC:cholesterol ratios. Blood samples for assessment of 2-HG only were also collected at screening.
(§1) Plasma ivosidenib was measured using two validated liquid chromatography-tandem mass spectrometry (LC-MS/MS) methods. The lower limit of quantification (LLOQ) was 1.00 ng/mL (low-range assay) or 50.0 ng/mL (high-range assay). […] Plasma 2-HG concentrations were measured using a qualified LC-MS/MS method with an LLOQ of 30.0 ng/mL. Concentrations of 2-HG in tumor biopsy samples were quantified using qualified LC-MS/MS methods with an LLOQ of 7.5 μg/g for brain tumor homogenate, 100 ng/g for liver tumor homogenate (low-range assay), and 30 μg/g for liver tumor homogenate (high-range assay). Plasma 4β-OHC and cholesterol were measured using a validated LC-MS/MS method. The LLOQ was 5 ng/mL for 4β-OHC and 25 μg/mL for cholesterol in human plasma.
(§2) PK parameters included area under the plasma concentration-time curve (AUC), maximum plasma concentration (Cmax), time to maximum plasma concentration (Tmax), terminal elimination half-life (t1/2), and apparent oral clearance at steady state (CLss/F). Accumulation ratio (Racc), based on Cmax and AUC, was also assessed during the dose escalation portion. PD (2-HG) parameters included baseline-effect value, area under the effect concentration-time curve (AUEC0-10h for the dose escalation portion, or AUEC0-8h for the dose escalation and expansion portions), percent change from baseline in AUEC (%BAUEC0-10h for the escalation portion, or %BAUEC0-8h for the dose escalation and expansion portions), average plasma concentration (Cavg), and percent inhibition for Cavg (%BCavg). For the dose escalation portion, the time-matched ratios of 4β-OHC to cholesterol were calculated.

[2] = Ivosidenib plasma PK after single and multiple 500 mg QD doses (dose expansion); assay type: in vivo, human
Method: Additional predose samples were taken on cycle 1, day 8; cycle 1, day 15; cycle 3, day 1; and end of treatment.
as §1, §2

[3] = po, 100 mg, glioma, single oral 100 mg, day −3, geometric mean (geometric CV%)
[4] = po, 100 mg, non-glioma solid tumors, single oral 100 mg, day −3, geometric mean (geometric CV%)
[5] = po, 300 mg, glioma, single oral 300 mg, day −3, geometric mean (geometric CV%)
[6] = po, 300 mg, non-glioma solid tumors, single oral 300 mg, day −3, geometric mean (geometric CV%)
[7] = po, 400 mg, non-glioma solid tumors, single oral 400 mg, day −3, geometric mean (geometric CV%)
[8] = po, 500 mg, glioma, single oral 500 mg, day −3, geometric mean (geometric CV%)
[9] = po, 500 mg, non-glioma solid tumors, single oral 500 mg, day −3, geometric mean (geometric CV%)
[10] = po, 600 mg, glioma, single oral 600 mg, day −3, geometric mean (geometric CV%)
[11] = po, 800 mg, non-glioma solid tumors, single oral 800 mg, day −3, geometric mean (geometric CV%)
[12] = po, 900 mg, glioma, single oral 900 mg, day −3, geometric mean (geometric CV%)
[13] = po, 1200 mg, non-glioma solid tumors, single oral 1200 mg, day −3, geometric mean (geometric CV%)

## N#Cc1ccnc(N2C(=O)CC[C@H]2C(=O)N(c2cncc(F)c2)[C@H](C(=O)NC2CC(F)(F)C2)c2ccccc2Cl)c1 [ivosidenib]
[1]; oral, 500 mg, single dose of 500 mg, patients with cholangiocarcinoma/chondrosarcoma, read-out: mean t1/2 (converted)
  half-life: 64 h
[1]; oral, 500 mg, single dose of 500 mg, patients with glioma, read-out: mean t1/2 (converted)
  half-life: 56 h
[1]; oral, after single dose, range of means across doses and tumor types, read-out: terminal half-life (mean)
  half-life: 40 to 102 h
[1]; oral, single dose day −3, range across all tumor types, read-out: median Tmax
  Tmax: 2 to 6 h
[1]; oral, single dose, patients with glioma, range across doses, read-out: mean t1/2 (converted)
  half-life: 40 to 56 h
[1]; oral, single dose, patients with non-glioma solid tumors, range across doses, read-out: mean t1/2 (converted)
  half-life: 62 to 102 h
[1]; [3]
  Cmax: 1270 ng/mL
  AUC(0-t): 32800 ng·h/mL
[1]; po, 100 mg, glioma, single oral 100 mg, day −3, geometric mean (geometric CV%), read-out: t1/2 (converted)
  half-life: 55.5 h
[1]; po, 100 mg, glioma, single oral 100 mg, day −3, median (minimum; maximum), read-out: Tmax
  Tmax: 2.03 h
[1]; [4]
  Cmax: 1400 ng/mL
  AUC(0-t): 34800 ng·h/mL
[1]; po, 100 mg, non-glioma solid tumors, single oral 100 mg, day −3, geometric mean (geometric CV%), read-out: t1/2 (converted)
  half-life: 102 h
[1]; po, 100 mg, non-glioma solid tumors, single oral 100 mg, day −3, median (minimum; maximum), read-out: Tmax
  Tmax: 3 h
[1]; [5]
  Cmax: 2300 ng/mL
  AUC(0-t): 62500 ng·h/mL
[1]; po, 300 mg, glioma, single oral 300 mg, day −3, geometric mean (geometric CV%), read-out: t1/2 (converted)
  half-life: 53.6 h
[1]; po, 300 mg, glioma, single oral 300 mg, day −3, median (minimum; maximum), read-out: Tmax
  Tmax: 4 h
[1]; [6]
  Cmax: 2350 ng/mL
  AUC(0-t): 71600 ng·h/mL
[1]; po, 300 mg, non-glioma solid tumors, single oral 300 mg, day −3, geometric mean (geometric CV%), read-out: t1/2 (converted)
  half-life: 77.9 h
[1]; po, 300 mg, non-glioma solid tumors, single oral 300 mg, day −3, median (minimum; maximum), read-out: Tmax
  Tmax: 4.17 h
[1]; [7]
  Cmax: 4230 ng/mL
  AUC(0-t): 141000 ng·h/mL
[1]; po, 400 mg, non-glioma solid tumors, single oral 400 mg, day −3, geometric mean (geometric CV%), read-out: t1/2 (converted)
  half-life: 77.3 h
[1]; po, 400 mg, non-glioma solid tumors, single oral 400 mg, day −3, median (minimum; maximum), read-out: Tmax
  Tmax: 3 h
[1]; [8]
  Cmax: 2370 ng/mL
  AUC(0-t): 81900 ng·h/mL
[1]; po, 500 mg, glioma, single oral 500 mg, day −3, geometric mean (geometric CV%), read-out: t1/2 (converted)
  half-life: 56.4 h
[1]; po, 500 mg, glioma, single oral 500 mg, day −3, median (minimum; maximum), read-out: Tmax
  Tmax: 3.54 h
[1]; [9]
  Cmax: 3660 ng/mL
  AUC(0-t): 112000 ng·h/mL
[1]; po, 500 mg, non-glioma solid tumors, single oral 500 mg, day −3, geometric mean (geometric CV%), read-out: t1/2 (converted)
  half-life: 64.3 h
[1]; po, 500 mg, non-glioma solid tumors, single oral 500 mg, day −3, median (minimum; maximum), read-out: Tmax
  Tmax: 2.92 h
[1]; [10]
  Cmax: 3380 ng/mL
  AUC(0-t): 77700 ng·h/mL
[1]; po, 600 mg, glioma, single oral 600 mg, day −3, geometric mean (geometric CV%), read-out: t1/2 (converted)
  half-life: 39.5 h
[1]; po, 600 mg, glioma, single oral 600 mg, day −3, median (minimum; maximum), read-out: Tmax
  Tmax: 3 h
[1]; [11]
  Cmax: 6190 ng/mL
  AUC(0-t): 179000 ng·h/mL
[1]; po, 800 mg, non-glioma solid tumors, single oral 800 mg, day −3, geometric mean (geometric CV%), read-out: t1/2 (converted)
  half-life: 62.8 h
[1]; po, 800 mg, non-glioma solid tumors, single oral 800 mg, day −3, median (minimum; maximum), read-out: Tmax
  Tmax: 3 h
[1]; [12]
  Cmax: 3440 ng/mL
  AUC(0-t): 98600 ng·h/mL
[1]; po, 900 mg, glioma, single oral 900 mg, day −3, geometric mean (geometric CV%), read-out: t1/2 (converted)
  half-life: 54.3 h
[1]; po, 900 mg, glioma, single oral 900 mg, day −3, median (minimum; maximum), read-out: Tmax
  Tmax: 2.55 h
[1]; [13]
  Cmax: 5990 ng/mL
  AUC(0-t): 212000 ng·h/mL
[1]; po, 1200 mg, non-glioma solid tumors, single oral 1200 mg, day −3, geometric mean (geometric CV%), read-out: t1/2 (converted)
  half-life: 61.6 h
[1]; po, 1200 mg, non-glioma solid tumors, single oral 1200 mg, day −3, median (minimum; maximum), read-out: Tmax
  Tmax: 6 h
[2]
  Cmax at steady state lower in glioma than in cholangiocarcinoma/chondrosarcoma: ~29%
